# Residues, ends and D or L forms follow the SMILES beside them. *: point of attachment. Cbz = O=C(OCc1ccccc1)*
# Key:
# BCL-xL/BCL-2 = experiment: Blocking of WH244-induced BCL-xL/BCL-2 degradation in Jurkat cells (immunoblot); type: cell-based, human; details: for Effect of proteasome / NEDD8-activating enzyme inhibition on WH244-mediated degradation of BCL-xL and BCL-2: Jurkat cells
# Procedure: The data are presented as mean ± s.d. from three replicate cell cultures in a representative experiment for Jurkat cells. h Left, WH244 induces polyubiquitination of WT, K22R BCL-2 and to some extent K17R but not K17/22R BCL-2 in 293T cells. 293T cells were co-transfected as indicated with Flag-BCL−2 WT or mutants and HA-tagged ubiquitin (HA-Ub) plasmids. After 36 h, cells were pretreated with MG132 (10 µM) for 2 h and then treated with or without WH244 (1 μM) for 5 h. The Flag-tagged proteins were immunoprecipitated (IP) and immunoblotted with HA or Flag antibody. Right, The input blot for this assay. Data are a representative of two independent experiments. Source data are provided as Source Data file.
# A series of experiments were performed to assess the efficacy of WH244. […] These DC50 values were ~6.2 and 6.8-fold better than of 753b for BCL-xL (DC50 of 3.7 nM) and BCL-2 (DC50 of 50 nM), respectively. Also, WH244-mediated proteolysis of BCL-xL and BCL-2 was time-dependent with BCL-xL degrading faster than BCL-2 (Fig. 3c). […]
# Cells were collected, washed once with ice-cold phosphate-buffered saline, pH 7.2 (PBS, cat. no. 20012027; Thermo Fisher Scientific) and lysed in RIPA lysis buffer (Cat. No. BP-115DG, Boston Bio Products, Ashland, MA, USA) supplemented with protease and phosphatase inhibitor cocktails (Cat. No. PPC1010, Sigma-Aldrich, St. Louis, MO, USA) through sonication. […] The protein concentration in the supernatants was determined using the Pierce BCA protein Assay kit (cat. no. 23225, Thermo Fisher Scientific). […] The membranes were blocked with non-fat dry milk (5% wt/vol) in 1×Tris- buffered saline-Tween-20 (TBST) for 1 h at room temperature, and were subsequently probed with primary antibodies at a pre-determined optimal concentration in non-fat dry milk (5% wt/vol in TBST) overnight at 4 °C. […] Following sufficient washing with TBST, the membranes were exposed with ECL Western Blotting Substrate (Bio-Rad), and the signal was detected using the ChemiDoc MP Imaging System (Bio-Rad) and quantified using the ImageJ (v1.53a) software from NIH. […]
# MOLT-4 T-ALL cells = experiment: Potency against MOLT-4 T-ALL cells in vitro; type: cell-based; details: Homo sapiens
# RS4 B-ALL cells = experiment: Potency against RS4 B-ALL cells in vitro; type: cell-based
# human platelets = experiment: Potency against human platelets in vitro; type: cell-based; details: Platelet; human platelets in vitro
# BCL-xL and BCL-2 = test system: BCL-xL and BCL-2; set-up: method as in Khan S et al. Nat Med, 25: 1938-1947, 2019; details: ref Khan S et al. Nat Med, 25: 1938-1947, 2019; cited from earlier work
compound,measurement,setting,value
"CC1(C)CCC(c2ccc(Cl)cc2)=C(CN2CCN(c3ccc(C(=O)NS(=O)(=O)c4ccc(N[C@H](CCN5CCOCC5)CSc5ccccc5)c(S(=O)(=O)C(F)(F)F)c4)cc3)CC2)C1 [ABT263, Navitoclax]",Effect of pretreatment on degradation of BCL-xL and BCL-2 with WH244,"BCL-xL/BCL-2; two hours pretreatment, then six-hour WH244, Jurkat cells",completely blocked
same,IC50,MOLT-4 T-ALL cells,220 nM
same,IC50,RS4 B-ALL cells,38 nM
same,IC50,human platelets,310 nM
Cc1ncsc1-c1ccc([C@H](C)NC(=O)[C@@H]2C[C@@H](O)CN2C(=O)[C@@H](NC(=O)CCCCCC(=O)N2CCN(CC[C@H](CSc3ccccc3)Nc3ccc(S(=O)(=O)NC(=O)c4ccc(N5CCN(CC6=C(c7ccc(Cl)cc7)CCC(C)(C)C6)CC5)cc4)cc3S(=O)(=O)C(F)(F)F)CC2)C(C)(C)C)cc1 [DT2216],Reduction in binding affinity to BCL-xL and BCL-2 on converting ABT263 into DT2216,BCL-xL and BCL-2,about 8 fold
CC(C)C[C@@H](C=O)NC(=O)[C@H](CC(C)C)NC(=O)[C@H](CC(C)C)NC(=O)OCc1ccccc1 [MG132] (Cbz-Leu-Leu-Leu-aldehyde),Effect of proteasome / NEDD8-activating enzyme inhibition on WH244-mediated degradation of BCL-xL and BCL-2,BCL-xL/BCL-2,abrogated
NS(=O)(=O)OC[C@@H]1C[C@@H](n2ccc3c(N[C@H]4CCc5ccccc54)ncnc32)C[C@@H]1O [MLN4924],Effect of proteasome / NEDD8-activating enzyme inhibition on WH244-mediated degradation of BCL-xL and BCL-2,BCL-xL/BCL-2,abrogated

# Source: publication PMC10979003, “Development and crystal structures of a potent second-generation dual degrader of BCL-2 and BCL-xL” (Nature Communications, 2024)
